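Tested at 5 concentrations; 48 h exposure; 96-well plates; endpoints linearly interpolated, else capped at highest concentration. Abbreviation: GI50, concentration required for 50% inhibition of growth. TGI: concentration producing complete growth inhibition.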
Tests used:
Assay in all cases: inhibition of tumour cell growth, NCI panel, 48 h
A549 NSCLC = test system: A549 NSCLC
HCT-15 colon = test system: HCT-15 colon
HOP-62 NSCLC = test system: HOP-62 NSCLC
KM12 colon = test system: KM12 colon
MOLT-4 leukemia = test system: MOLT-4 leukemia
NCI-H460 lung = test system: NCI-H460 lung
SF-539 CNS = test system: SF-539 CNS
SK-OV-3 ovarian = test system: SK-OV-3 ovarian
SW-620 colon = test system: SW-620 colon
TK-10 renal = test system: TK-10 renal

Structure (SMILES)	GI50 (A549 NSCLC)	TGI (A549 NSCLC)	GI50 (HCT-15 colon)	TGI (HCT-15 colon)	GI50 (HOP-62 NSCLC)	TGI (HOP-62 NSCLC)	GI50 (KM12 colon)	TGI (KM12 colon)	GI50 (MOLT-4 leukemia)	TGI (MOLT-4 leukemia)	GI50 (NCI-H460 lung)	TGI (NCI-H460 lung)	GI50 (SF-539 CNS)	TGI (SF-539 CNS)	GI50 (SK-OV-3 ovarian)	TGI (SK-OV-3 ovarian)	GI50 (SW-620 colon)	TGI (SW-620 colon)	GI50 (TK-10 renal)	TGI (TK-10 renal)
COc1cc(-c2cc(C(=O)N3CCN(C(=O)c4ccccc4NCc4ccco4)CC3)nc3cc(-c4ccccc4)nn23)cc(OC)c1OC	2.13 µM	> 100 µM	3.4 µM	> 100 µM	3.03 µM	> 100 µM	0.878 µM	> 100 µM	11.2 µM	> 100 µM	2.55 µM	> 100 µM	3.11 µM	> 26 µM	2.58 µM	18.8 µM	2.62 µM	> 100 µM	6.74 µM	> 100 µM
Cc1ccc(S(=O)(=O)N/N=C/C(Br)=C(/Br)C(=O)O)cc1		50.2 µM		8.67 µM		43.6 µM		33.1 µM		3.51 µM		44.4 µM		14.5 µM		34.8 µM		14 µM		22.9 µM
COC(=O)[C@]12CC[C@@H](C)[C@H](C)[C@@H]1C1=CC[C@@H]3[C@@]4(C)CC(=O)[C@H](O)[C@@]5(C)COC(=C45)C[C@@]3(C)[C@]1(C)CC2	23.9 µM	41.5 µM	18 µM	33.4 µM	16.9 µM	31.1 µM	17.7 µM	33.8 µM	18.7 µM	39.1 µM	18.8 µM	37.5 µM	18.8 µM	37.2 µM	18.2 µM	32.8 µM	17.5 µM	33.6 µM	20.4 µM	38 µM
COc1cc2c(cc1OC)C(=O)C(Br)CC2 (centres undefined)	11.4 µM	27.7 µM	2.33 µM	7.37 µM	6.09 µM	18.5 µM	5.77 µM	19.3 µM	3.22 µM	15 µM	4.27 µM	16.9 µM	3.12 µM	11.2 µM	4.55 µM	13.7 µM	2.71 µM	6.39 µM	5.17 µM	17.8 µM
COc1ccc(-c2cc(-c3ccc(Nc4nc(Nc5ccc(Cl)cc5)nc(Nc5ccc(Cl)cc5)n4)cc3)nc(N)c2C#N)cc1	3.64 µM	> 100 µM	1.54 µM	5.24 µM	11.9 µM	> 42.3 µM	1.95 µM	4.24 µM	0.702 µM	3.56 µM	4.2 µM	> 54.2 µM	2.02 µM	4.15 µM	8.71 µM	> 28.1 µM	0.666 µM	1.37 µM	2.08 µM	3.77 µM
O=C(CCCc1c[nH]c2ccccc12)NC1CC(=O)c2c(Br)sc(Br)c21 (centres undefined)	33.4 µM	> 100 µM	3.51 µM	10.9 µM	18.3 µM	33 µM	23.5 µM	71.2 µM	10.2 µM	55.4 µM	19.2 µM	38.7 µM	23.1 µM	50.1 µM	22.7 µM	55.2 µM	18.8 µM	41 µM	26 µM	> 100 µM
CCCCCCCCCCCCCCCCCCNC(=O)[C@H]1CSC(c2ccc(OC)c(F)c2)N1 (some centres undefined)	9.87 µM	38.1 µM	> 37.1 µM	> 53.1 µM	2.16 µM	5.12 µM	2.34 µM	7.9 µM	1.48 µM	9.18 µM	0.606 µM	2.02 µM	4.67 µM	> 37.6 µM	> 42 µM	> 58 µM	1.5 µM	5.71 µM	28.3 µM	> 57.7 µM
C[C@H]1[C@H](OC(=O)CCC(=O)O)O[C@@H]2O[C@]3(C)CC[C@H]4[C@H](C)CC[C@@H]1[C@@]24OO3	0.959 µM	18.3 µM	0.107 µM	16.1 µM	3.68 µM	27.3 µM	0.168 µM	12 µM	0.308 µM	16.5 µM	1.24 µM	41.6 µM	0.667 µM	14.5 µM	16.7 µM	> 89 µM	0.282 µM	17.8 µM		11.6 µM
O/N=C1/C(=C/c2ccc(F)cc2)CCCC1C(NO)c1ccc(F)cc1 (centres undefined)		> 100 µM		> 100 µM		> 100 µM		52.6 µM		55.3 µM		> 100 µM		> 100 µM		> 100 µM		> 100 µM		> 100 µM
CCOC(=O)c1cnc(SCc2ccc(Cl)c(Cl)c2)nc1N1CC1	3.72 µM	16.1 µM	1.31 µM	14.4 µM	2.95 µM	13.6 µM	3.13 µM	12.5 µM	3.27 µM	15 µM	2.88 µM	7.66 µM	3.3 µM	12.3 µM	2.85 µM	10.4 µM	1.74 µM	13.8 µM	3.87 µM	15.2 µM
S=c1[nH]nc(COc2ccc(Cl)cc2)o1		> 100 µM		98.6 µM		> 100 µM		> 100 µM		> 100 µM		> 100 µM		> 100 µM		> 100 µM		29.8 µM		> 100 µM
COc1cc(C(=O)O)c([N+](=O)[O-])c(OC)c1OC		> 100 µM		> 100 µM		> 100 µM		> 100 µM		> 100 µM		> 100 µM		> 100 µM		> 100 µM		> 100 µM		> 100 µM
Cc1cc2c(C)c3cc(C)c(N)cc3nc2cc1N	0.636 µM	3.16 µM	1.43 µM	10.6 µM	1.11 µM	7.08 µM	0.745 µM	10.2 µM	0.43 µM	6.23 µM	0.332 µM	1.34 µM	0.455 µM	3.48 µM	0.963 µM	8.39 µM	0.38 µM	3.57 µM	1.31 µM	5.39 µM
N#C/C(=C\c1c(-c2ccccc2)[nH]c2ccccc12)C(=O)c1ccc(Cl)cc1	8.44 µM	> 68.8 µM	1.38 µM	> 100 µM	5.41 µM	26 µM	0.735 µM	23.6 µM	1.01 µM	8.87 µM	1.02 µM	11.6 µM	0.715 µM	3.99 µM	3.02 µM	14.8 µM	0.554 µM	> 100 µM	8.6 µM	43.8 µM

Reference: PubChem BioAssay (NCI)
